From patent publication US6759212B1, “Cell cycle-regulating proteins” (Chugai Seiyaku Kabushiki Kaisha, priority 1997, dated 2004)

Tests used:
NRK-49F cells = assay: Abnormal cytokinesis: cells having two or more nuclei after transient transfection; format: cell-based, rat; conditions: 72 hours after transfection
Description: (§1) To confirm the generality of this observation, AIM-1 (WT) and AIM-1 (K-R) plasmids were transiently expressed in NRK-49F cells and human diploid fibroblast KD cells and the results were compared with those obtained in a control transfected with vector alone. These constructs were transfected into cell-s with a reporter construct […] to prepare β-galactosidase-expressing plasmids for use as a positive internal control for transfection (Table 1).
(§2) (2) Abnormal Cytokinesis in Cells Expressing AIM-1 (K-R) Plasmid FLAG-AIM-1 (WT), FLAG-AIM-1 (K-R) or a control plasmid pEF/hygI was cotransfected with a reporter construct RSV-β-galactosidase at a ratio of 10:1 into NRK-49F cells and human diploid fibroblast KD cells (a kind gift of late Dr. Takeo Kakunaga) by Lipofectin method. After 24 hours, 1×10^3 cells were seeded per 60 mm dish, and 72 hours after transfection, cells were fixed in 1.25% glutaraldehyde/PBS and stained by a method described in literature (Shu et al., J.C.S. 108:2955-62, 1995) to observe expression of β-galactosidase. MvlLu cells were also tested under the conditions described in (1) B above.
(§3) 1. The figures in the table mean the percentage of cells having two or more nuclei to β-galactosidase positive cells for NRK-49F cells and KD cells or the percentage of cells having two or more nuclei to the total number of cells for MvlLu cells. […]

[1] = test system: human diploid fibroblast KD cells; assay: as above; format: cell-based; conditions: 72 hours after transfection
Description: as §1, §2, §3

Mv1Lu cells [2] = assay: Abnormal cytokinesis: cells having two or more nuclei, tetracycline-inducible expression, Giemsa staining; format: cell-based, mink; conditions: Mv1Lu, 72 hours
Description: (§4) MvlLu cells carrying vector alone, wild-type FLAG-AIM-1 (WT) or FLAG-AIM-1 (K-R) were grown in the presence or absence of doxycycline (tetracycline analog) for 24 hours and then subjected to western blot with anti-FLAG antibody (FIG. 4A). […] In addition, the size of these cells was much larger than normal cells (FIGS. 4Bf and 5D). In these abnormal cells, however, spindle. functions including chromosome disjunction and late anaphase spindle elongation as well as nuclear division appeared unaffected (data not shown). This was further confirmed by flow cytometry (FACS) (FIG. 4C). […] Namely, apocytes appeared because karyokinesis advances but cytokinesis is inhibited.
Then, asynchronous cells transfected with vector alone (a, d), FLAG-AIM-1 (WT) (b, e) or FLAG-AIM-1 (K-R) (c, f) were grown with (a-c) or without (d-f) DOX for 72 hours and stained with Giemsa's solution. Results are shown in FIG. 4B, wherein upper panels are called as a, b and c from left to right, and lower panels are called as d, e and f from left to right.
(2) Abnormal Cytokinesis in Cells Expressing AIM-1 (K-R) Plasmid FLAG-AIM-1 (WT), FLAG-AIM-1 (K-R) or a control plasmid pEF/hygI was cotransfected with a reporter construct RSV-β-galactosidase at a ratio of 10:1 into NRK-49F cells and human diploid fibroblast KD cells (a kind gift of late Dr. Takeo Kakunaga) by Lipofectin method. […]

Mv1Lu cells [3] = assay: FACS analysis of DNA content (propidium iodide); format: cell-based, mink; conditions: 72 hour-induction
Description: as §4
Cell samples were harvested and fixed with ethanol, stained with propidium iodide for FACS analysis.

Mv1Lu cells [4] = assay: Growth for 2 weeks with or without DOX, Giemsa staining; format: cell-based, mink; conditions: grown 2 weeks with or without doxycycline
Description: The nuclei of these AIM-1 (K-R)-expressing cells divided 3 to 4 times during 4 to 5 days, resulting in more than 10 nuclei per cell (FIG. 5D).
Mv1Lu cells transfected with FLAG-AIM-1 (WT) or FLAG-AIM-1 (K-R) were grown with or without DOX for 2 weeks and stained with Giemsa's solution.

AIM-1 (WT): wild-type rat AIM-1 protein kinase labeled with FLAG at the N-terminus, expressed from plasmid pUHD10-3 or pEF/hygI
percentage of cells having two or more nuclei to β-galactosidase positive cells (NRK-49F cells): 7.8%
percentage of cells having two or more nuclei to β-galactosidase positive cells [1]: 4.8%
percentage of cells having two or more nuclei to the total number of cells (Mv1Lu cells [2]; DOX(+) (not induced)): 0.9%
percentage of cells having two or more nuclei to the total number of cells (Mv1Lu cells [2]; DOX(−) (induced)): 2.8%
cell population with 4N or 8N DNA / cell cycle pattern (FACS) (Mv1Lu cells [3]): normal cell cycle pattern
effect on growth potency (mitotic inhibition) (Mv1Lu cells [4]): not
